One assay has as its system B. subtilis. The assay is classed as cell-based, Bacillus subtilis (ATCC 6633). The following applies: 16 h. The method, then:
(§1) The polymers were initially tested to determine their antibacterial properties in the solution state. Antibacterial activities of the compounds were tested using the methods described above for both Gram-negative and Gram-positive bacterial strains.
(§2) The minimum inhibitory concentration (MIC) for each polymer was determined according to Clinical Laboratory Standards Institute (CLSI) broth microdilution protocols (M7-A6). The procedure explained previously was followed (Chongsiriwatana et al., supra); briefly, serial dilutions of the polymers were prepared in Mueller-Hinton broth (MHB) in 96-well microtiter plates and bacterial inoculum in MHB was added to each well (˜5.0×10^4 CFU/well). Optical density was monitored at 590 nm for 16 h at 35° C.

The subject of a further assay is S. epidermidis. The assay is classed as cell-based, Staphylococcus epidermidis RP62A (ATCC 12228). The conditions noted are these: 16 h. The method, then:
as §1, §2

A further assay relates to P. aeruginosa. Type of assay: cell-based, Pseudomonas aeruginosa (ATCC 700829). The following applies: 16 h. The method, then:
as §1, §2

A further assay relates to E. coli. The assay is classed as cell-based, Escherichia coli (ATCC 35218). The conditions noted are these: 16 h. The method, then: as §1, §2
Assay [1] has as its target T1, fibrinogen from human plasma (Homo sapiens, UniProt P02671+P02675+P02679).
T1 construct: fibrinogen from human plasma was dissolved at 3 mg/ml concentrations in buffer B; purchased Aldrich (Milwaukee, Wis.); host or cells: human plasma
T1 sequence (P02671 20-644 isoform P02671-2 limits assumed): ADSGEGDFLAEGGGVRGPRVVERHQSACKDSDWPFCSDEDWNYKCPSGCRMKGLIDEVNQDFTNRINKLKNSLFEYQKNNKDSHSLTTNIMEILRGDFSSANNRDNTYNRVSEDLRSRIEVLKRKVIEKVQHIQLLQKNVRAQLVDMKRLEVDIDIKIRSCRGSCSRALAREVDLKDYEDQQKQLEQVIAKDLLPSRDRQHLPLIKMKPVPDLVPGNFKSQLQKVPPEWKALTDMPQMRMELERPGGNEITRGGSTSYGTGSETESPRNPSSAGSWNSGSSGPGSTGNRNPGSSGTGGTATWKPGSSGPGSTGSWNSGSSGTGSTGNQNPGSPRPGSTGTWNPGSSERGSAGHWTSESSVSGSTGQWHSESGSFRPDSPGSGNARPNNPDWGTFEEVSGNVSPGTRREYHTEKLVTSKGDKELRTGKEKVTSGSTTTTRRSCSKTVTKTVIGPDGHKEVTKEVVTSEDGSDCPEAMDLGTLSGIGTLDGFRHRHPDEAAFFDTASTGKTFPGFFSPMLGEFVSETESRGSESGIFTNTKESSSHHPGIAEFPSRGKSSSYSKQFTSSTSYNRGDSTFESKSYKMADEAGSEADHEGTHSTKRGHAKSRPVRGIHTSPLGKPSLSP
T1 sequence (P02675 31-491): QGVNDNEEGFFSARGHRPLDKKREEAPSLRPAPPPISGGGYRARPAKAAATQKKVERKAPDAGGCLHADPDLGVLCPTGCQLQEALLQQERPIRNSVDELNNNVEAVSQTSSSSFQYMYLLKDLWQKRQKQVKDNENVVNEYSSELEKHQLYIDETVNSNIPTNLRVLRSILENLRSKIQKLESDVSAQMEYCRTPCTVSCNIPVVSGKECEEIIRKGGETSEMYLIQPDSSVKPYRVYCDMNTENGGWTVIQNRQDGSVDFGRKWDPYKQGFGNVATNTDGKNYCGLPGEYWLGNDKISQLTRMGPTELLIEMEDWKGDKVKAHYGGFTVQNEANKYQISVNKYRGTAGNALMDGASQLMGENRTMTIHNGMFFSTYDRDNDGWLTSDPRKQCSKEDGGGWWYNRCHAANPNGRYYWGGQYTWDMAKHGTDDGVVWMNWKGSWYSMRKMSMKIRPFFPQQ
T1 sequence (P02679 27-437 isoform P02679-2 limits assumed): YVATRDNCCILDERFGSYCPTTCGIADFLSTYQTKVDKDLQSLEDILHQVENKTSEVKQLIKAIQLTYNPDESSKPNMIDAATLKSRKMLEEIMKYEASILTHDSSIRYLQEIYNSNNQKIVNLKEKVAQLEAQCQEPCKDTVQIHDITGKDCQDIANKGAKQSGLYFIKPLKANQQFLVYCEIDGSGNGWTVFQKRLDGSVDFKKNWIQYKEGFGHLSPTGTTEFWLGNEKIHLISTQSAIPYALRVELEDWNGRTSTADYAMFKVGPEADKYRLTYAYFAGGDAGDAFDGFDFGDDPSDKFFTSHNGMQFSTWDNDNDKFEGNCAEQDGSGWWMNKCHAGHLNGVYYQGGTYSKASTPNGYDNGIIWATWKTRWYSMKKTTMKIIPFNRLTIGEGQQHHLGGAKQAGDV
Put plainly: Short-term fibrinogen adsorption on modified TiO2 sensors using OWLS. The conditions noted are these: Table 7, fibrinogen 3 mg/ml, 20 min, 37° C., mean ± SD. The method, then: Lyophilized human serum was reconstituted in water to reach the typical concentration in blood; fibrinogen from human plasma was dissolved at 3 mg/ml concentrations in buffer B (10 mM HEPES, 150 mM NaCl, pH=7.4). For in situ protein-adsorption experiments, TiO2 coated waveguide sensors were modified with peptidomimetic polymers as explained previously. After equilibration of the OWLS baseline in buffer B, protein solution was injected and allowed to adsorb for 20 min at 37° C. before rinsing with buffer B. A refractive index value of 1.331 27 was used for buffer B, and a standard value of 0.182 cm^3/g was used for dn/dc in the protein-adsorption calculations.

The structures appear in SMILES notation. Non-standard residues stand in square brackets, D forms with d. Residues, ends and D or L forms follow the SMILES beside them. Dopa = N[C@@H](Cc1ccc(O)c(O)c1)C(=O)O; Nme = COCCNCC(=O)O

`COCCN(CC(=O)N(CCOC)CC(=O)N(CCOC)CC(=O)N(CCOC)CC(=O)N(CCOC)CC(=O)N(CCOC)CC(=O)N(CCOC)CC(=O)N(CCOC)CC(=O)N(CCOC)CC(=O)N(CCOC)CC(=O)N(CCOC)CC(=O)N(CCOC)CC(=O)N(CCOC)CC(=O)N(CCOC)CC(=O)N(CCOC)CC(=O)N(CCOC)CC(=O)N(CCOC)CC(=O)N(CCOC)CC(=O)N(CCOC)CC(=O)N(CCOC)CC(=O)N[C@@H](Cc1ccc(O)c(O)c1)C(=O)N[C@@H](CCCCN)C(=O)N[C@@H](Cc1ccc(O)c(O)c1)C(=O)N[C@@H](CCCCN)C(=O)N[C@@H](Cc1ccc(O)c(O)c1)C(N)=O)C(C)=O` [PMP1, (Nme)20-(DOPA-Lys)2-DOPA] (Ac-[Nme][Nme][Nme][Nme][Nme][Nme][Nme][Nme][Nme][Nme][Nme][Nme][Nme][Nme][Nme][Nme][Nme][Nme][Nme][Nme][Dopa]K[Dopa]K[Dopa]-NH2; N-terminus and C-terminus assumed): the “MIC B. subtilis” value against B. subtilis was greater than 100 µM. For the same compound, the “MIC S. epidermidis” value in the assay with S. epidermidis was greater than 100 µM. In the assay with P. aeruginosa, the “MIC P. aeruginosa” value is greater than 100 µM. The “MIC E. coli” value in the assay on E. coli is greater than 100 µM. Also, the “Adsorbed mass Fibrinogen” value in assay [1] is listed as 7 ± 3 ng/cm^2.

These data come from patent US10676509B2, “Surface-immobilized antimicrobial peptoids” (Northwestern University, priority 2008, dated 2020).
